Measured values from patent publication US8604053B2, “TRPV1 antagonists” (AbbVie Inc., priority 2008, dated 2013).

Key:
Assay type in all cases: in vitro ADME
CYP3A4 = target: T1, CYP3A4 (Homo sapiens, UniProt P08684); assay: CYP3A4 inhibition assay; conditions: human liver microsomes, substrate BZQ; for inhibition at 25 min, 2.2 µM: pH 7.4, probe 7-benzyloxyquiniline (BZQ), 50 μM final, read-out: CYP3A4 % inh @ 2.2 μM
T1 construct: human liver microsomes (BD Gentest, 450 μL; final concentration: 0.4 mg/mL); tissue BD Gentest; host or cells: human liver microsomes
T1 sequence (P08684 whole entry): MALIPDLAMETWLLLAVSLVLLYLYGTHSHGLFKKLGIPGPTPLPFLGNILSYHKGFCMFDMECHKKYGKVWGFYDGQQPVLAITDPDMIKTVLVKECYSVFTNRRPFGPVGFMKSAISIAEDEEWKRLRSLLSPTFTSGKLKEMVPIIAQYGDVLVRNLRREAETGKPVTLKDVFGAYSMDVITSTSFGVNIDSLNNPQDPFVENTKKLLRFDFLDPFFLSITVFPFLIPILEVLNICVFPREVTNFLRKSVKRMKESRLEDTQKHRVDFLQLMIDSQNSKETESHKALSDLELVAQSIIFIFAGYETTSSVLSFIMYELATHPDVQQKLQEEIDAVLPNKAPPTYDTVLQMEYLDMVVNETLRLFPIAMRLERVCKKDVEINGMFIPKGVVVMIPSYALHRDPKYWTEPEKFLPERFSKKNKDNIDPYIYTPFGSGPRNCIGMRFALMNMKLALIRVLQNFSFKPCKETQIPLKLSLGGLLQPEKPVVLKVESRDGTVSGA
Procedure: Luciferin-H was used as the substrate for CYP2C9; 3-[2-(N,N-diethyl-N-methylammonium)ethyl]-7-methoxy-4-methylcoumarin (AMMC) was used as the substrate for CYP2D6; 7-benzyloxyquiniline (BZQ) was used as the substrate for CYP3A4.
Pre-Incubation Mixture Preparation for CYP3A4: A pre-incubation mixture was prepared by combining 100 mM phosphate buffer (19.35 mL; pH 7.4), human liver microsomes (BD Gentest, 450 μL; final concentration: 0.4 mg/mL), and 10 mM nicotinamide adenine dinucleotide phosphate in 65.4 mM MgCl2 hexahydrate (225 μL; final concentration: 100 μM and 654 μM, respectively). To this was mixture was added a ‘regeneration’ mixture (225 μL) of 333 mM glucose-6-phosphate and 40 U/mL glucose-6-phosphate dehydrogenase in 5 mM sodium citrate (final concentration: 3.3 mM, 0.4 U/mL, and 0.05 mM, respectively).
Substrate Mixture Preparation for CYP3A4: To a solution of 100 mM phosphate buffer, (2.36 mL, pH 7.4) was added 30 mM BZQ in acetonitrile (40 μL; final solution concentration 0.5 mM, final assay concentration 50 μM).
(§1) CYP3A4 Inhibiton Assay: To each well in the assay plate containing varying concentrations of test compound or control compound in DMSO (10 μL), CYP3A4 Pre-Incubation Mixture (90 μL) was added to the wells and the assay plate was pre-incubated for 10 minutes at 37° C., with shaking or rocking. A pre-read of each well was performed at 405 nm and 535 nm extinction/emission. CYP3A4 Substrate Mixture (10 μL) was added to all wells and the assay plate was incubated for an additional […] at 37° C., with shaking or rocking. Final DMSO concentration was 1%. A post-read of each well was then performed at 405 nm and 535 nm extinction/emission.

CYP2C9 = target: T2, CYP2C9 (Homo sapiens, UniProt P11712); assay: CYP2C9 inhibition assay; conditions: human liver microsomes, substrate Luciferin-H; for inhibition at 25 min, 2.2 µM: pH 7.4, probe Luciferin-H (100 μM final), read-out: CYP2C9 % inh @ 2.2 μM
T2 construct: human liver microsomes (BD Gentest); tissue BD Gentest; host or cells: human liver microsomes
T2 sequence (P11712 whole entry): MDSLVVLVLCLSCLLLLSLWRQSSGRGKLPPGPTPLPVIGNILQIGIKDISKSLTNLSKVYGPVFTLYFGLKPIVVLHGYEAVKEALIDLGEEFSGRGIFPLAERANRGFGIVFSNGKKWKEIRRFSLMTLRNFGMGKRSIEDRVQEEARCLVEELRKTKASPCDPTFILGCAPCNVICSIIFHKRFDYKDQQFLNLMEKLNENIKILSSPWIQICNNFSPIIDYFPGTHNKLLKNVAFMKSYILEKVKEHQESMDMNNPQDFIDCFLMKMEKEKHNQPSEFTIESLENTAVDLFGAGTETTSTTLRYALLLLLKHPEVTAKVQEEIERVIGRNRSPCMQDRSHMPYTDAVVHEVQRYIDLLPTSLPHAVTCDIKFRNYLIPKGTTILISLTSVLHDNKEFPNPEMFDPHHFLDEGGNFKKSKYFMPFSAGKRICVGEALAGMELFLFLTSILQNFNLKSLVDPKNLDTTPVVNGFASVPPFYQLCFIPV
Procedure: (§2) Stock solutions of test compounds were assayed in 96-well format for their ability to inhibit CYP2C9, CYP2D6, or CYP3A4 mediated metabolism of test substrates. Luciferin-H was used as the substrate for CYP2C9; 3-[2-(N,N-diethyl-N-methylammonium)ethyl]-7-methoxy-4-methylcoumarin (AMMC) was used as the substrate for CYP2D6; 7-benzyloxyquiniline (BZQ) was used as the substrate for CYP3A4. For each subtype, positive controls (sulphaphenazole in the case of CYP2C9; quinidine in the case of CYP2D6, ketoconazole in the case of CYP3A4) were used to validate assay results run in duplicate.
(§3) Pre-Incubation Mixture Preparation for CYP2C9 and CYP2D6: A pre-incubation mixture was prepared by combining 100 mM phosphate buffer (9.12 mL; pH 7.4), human liver microsomes (BD Gentest, 240 itt; final concentration: 0.4 mg/mL), and 10 mM nicotinamide adenine dinucleotide phosphate in 65.4 mM MgCl2 hexahydrate (120 μL; final concentration: 125 μM and 818 μM, respectively). To this was mixture is added a ‘regeneration’ mixture (120 μL) of 333 mM glucose-6-phosphate and 40 U/mL glucose-6-phosphate dehydrogenase in 5 mM sodium citrate (final concentration: 4 mM, 0.5 U/mL, and 0.06 mM, respectively).
Substrate Mixture Preparation for CYP2C9: To a solution of 25 mM phosphate buffer, (2.16 mL, pH 7.4) was added 5 mM Luciferin-H (Promega P450 Glo Assay V8792, 240 μL; final solution concentration 0.5 mM, final assay concentration 100 μM).
CYP2C9 Inhibiton Assay: To each well in the assay plate containing varying concentrations of test compound or control compound in DMSO (10 μL) Pre-Incubation Mixture (40 itt) was added to the wells and the assay plate was pre-incubated for 10 minutes at 37° C., with shaking or rocking. CYP2C9 Substrate Mixture (10 μL) was added to all wells and the assay plate was incubated for an additional 25 minutes at 37° C., with shaking or rocking. Final DMSO concentration was 1%. Luciferin-H detection reagent (Promega kit V8792, 50 μL) was added to all wells. The plate was then vortexed at ambient temperature for between 20 minutes and 2 hours, and the luminescence of each well was then read and recorded.

CYP2D6 = target: T3, CYP2D6 (Homo sapiens, UniProt P10635); assay: in vitro; conditions: microsomes; for inhibition at 25 min, 2.2 µM: human, pH 7.4
T3 construct: human liver microsomes (BD Gentest); tissue BD Gentest; host or cells: human liver microsomes
T3 sequence (P10635 whole entry): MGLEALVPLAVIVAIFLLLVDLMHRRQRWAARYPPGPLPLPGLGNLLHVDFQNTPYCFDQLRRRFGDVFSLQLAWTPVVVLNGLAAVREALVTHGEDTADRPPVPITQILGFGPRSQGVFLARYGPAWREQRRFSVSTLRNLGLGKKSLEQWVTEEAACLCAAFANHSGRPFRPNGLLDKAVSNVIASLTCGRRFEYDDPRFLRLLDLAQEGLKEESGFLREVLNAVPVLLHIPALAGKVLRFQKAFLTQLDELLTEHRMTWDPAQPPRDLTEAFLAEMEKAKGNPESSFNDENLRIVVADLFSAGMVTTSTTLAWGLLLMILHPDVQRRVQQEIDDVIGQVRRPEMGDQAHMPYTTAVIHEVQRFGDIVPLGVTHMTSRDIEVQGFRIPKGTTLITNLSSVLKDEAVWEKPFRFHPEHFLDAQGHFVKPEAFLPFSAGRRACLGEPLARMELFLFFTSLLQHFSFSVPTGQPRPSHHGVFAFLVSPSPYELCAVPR
Procedure: as §2, §3
Substrate Mixture Preparation for CYP2D6: To a solution of 100 mM phosphate buffer, (2.80 mL, pH 7.4) was added 10 mM AMMC in acetonitrile (14 itt; final solution concentration 0.05 mM, final assay concentration 10 μM).
as §1, with “CYP2D6” for “CYP3A4”, “μL),” for “μL), CYP3A4”, “(40” for “(90”, “390” for “405”, “460” for “535”

| Compound | inhibition at 25 min, 2.2 µM (CYP3A4) [%] | inhibition at 25 min, 2.2 µM (CYP2C9) [%] | inhibition at 25 min, 2.2 µM (CYP2D6) [%] | CYP3A4 % inh @ 2.2 μM (CYP3A4) [%] | CYP2C9 % inh @ 2.2 μM (CYP2C9) [%] | CYP2D6 % inh @ 2.2 μM) (CYP2D6) [%] |
| --- | --- | --- | --- | --- | --- | --- |
| Cc1cc2c(NC(=O)N[C@@H]3CC(C)(C)Oc4c3ccc(F)c4Cl)cccc2cn1 [Example 110, N-[(4R)-8-chloro-7-fluoro-2,2-dimethyl-3,4-dihydro-2H-chromen-4-yl]-N′-(3-methylisoquinolin-5-yl)urea] | 0.25 | 13 | 1.4 | – | – | – |
| Cc1cc2c(NC(=O)N[C@@H]3CC(C)(C)Oc4c3ccc(F)c4F)cccc2cn1 [Example 113, N-[(4R)-7,8-difluoro-2,2-dimethyl-3,4-dihydro-2H-chromen-4-yl]-N′-(3-methylisoquinolin-5-yl)urea] | 9 | 7.6 | 0 | – | – | – |
| Cc1cc2c(NC(=O)N[C@@H]3CC(C)(C)Oc4cc(F)ccc43)c(F)ccc2cn1 [Example 123, N-[(4R)-7-fluoro-2,2-dimethyl-3,4-dihydro-2H-chromen-4-yl]-N′-(6-fluoro-3-methylisoquinolin-5-yl)urea] | 49 | 19 | 42 | – | – | – |
| Cc1cc2c(NC(=O)N[C@@H]3CC(C)(C)Oc4cc(C(F)(F)F)ccc43)cccc2cn1 [Example 118, N-[(4R)-2,2-dimethyl-7-(trifluoromethyl)-3,4-dihydro-2H-chromen-4-yl]-N′-(3-methylisoquinolin-5-yl)urea] | 0 | 7.8 | 21 | – | – | – |
| Cc1cc2c(NC(=O)N[C@@H]3C[C@](C)(CF)Oc4c(F)cccc43)cccc2cn1 [Example 126, N-[(2R,4R)-8-fluoro-2-(fluoromethyl)-2-methyl-3,4-dihydro-2H-chromen-4-yl]-N′-(3-methylisoquinolin-5-yl)urea] | 11 | 0 | 0 | – | – | – |
| Cc1cc2c(NC(=O)N[C@@H]3CC(CF)(CF)Oc4c(F)cccc43)cccc2cn1 [Example 85, N-[(4R)-8-fluoro-2,2-bis(fluoromethyl)-3,4-dihydro-2H-chromen-4-yl]-N′-(3-methylisoquinolin-5-yl)urea] | 0 | 7.2 | 10 | – | – | – |
| N-[(4R)-2,2-diethyl-8-fluoro-3,4-dihydro-2H-chromen-4-yl]-N-(3-methylisoquinolin-5-yl)urea [Example 62] | – | – | – | 0 | 22 | 9.1 |
| Cc1cc2c(NC(=O)N[C@@H]3CC(C)(C)Oc4c(F)cccc43)cccc2cn1 [Example 119, N-[(4R)-8-fluoro-2,2-dimethyl-3,4-dihydro-2H-chromen-4-yl]-N′-(3-methylisoquinolin-5-yl)urea] | 0 | 2.1 | 8.7 | – | – | – |
| N-[(4R)-2,2-diethyl-6-fluoro-3,4-dihydro-2H-chromen-4-yl]-N-(3-methylisoquinolin-5-yl)urea [Example 56] | – | – | – | 17 | 20 | 14 |
| Cc1cc2c(NC(=O)N[C@@H]3CC(CF)(CF)Oc4cc(F)ccc43)cccc2cn1 [Example 96, N-[(4R)-7-fluoro-2,2-bis(fluoromethyl)-3,4-dihydro-2H-chromen-4-yl]-N′-(3-methylisoquinolin-5-yl)urea] | 0 | 4.1 | 7.9 | – | – | – |
| N-[(4R)-6,8-difluoro-2,2-dimethyl-3,4-dihydro-2H-chromen-4-yl]-N-(3-methylisoquinolin-5-yl)urea [Example 98] | – | – | – | 0 | 8.4 | 3.7 |
| Cc1cc2c(NC(=O)N[C@@H]3C[C@@](C)(C(F)F)Oc4cc(Cl)ccc43)cccc2cn1 (single isomer, unassigned) [Example 124] | 21 | 1.2 | 8.4 | – | – | – |
| CC1(C)C[C@@H](NC(=O)Nc2cccc3cnccc23)c2ccc(C(F)(F)F)cc2O1 [Example 34, N-[(4R)-2,2-dimethyl-7-(trifluoromethyl)-3,4-dihydro-2H-chromen-4-yl]-N′-isoquinolin-5-ylurea] | 36 | 39 | 97 | – | – | – |
| CCC1(CC)C[C@@H](NC(=O)Nc2cccc3cnc(Cl)cc23)c2cccc(F)c2O1 [Example 81, N-(3-chloroisoquinolin-5-yl)-N′-[(4R)-2,2-diethyl-8-fluoro-3,4-dihydro-2H-chromen-4-yl]urea] | 0 | 19 | 0.68 | – | – | – |
| Cc1cc2c(NC(=O)N[C@@H]3CC(CF)(CF)Oc4c(Cl)cccc43)cccc2cn1 [Example 91, N-[(4R)-8-chloro-2,2-bis(fluoromethyl)-3,4-dihydro-2H-chromen-4-yl]-N′-(3-methylisoquinolin-5-yl)urea] | 3.8 | 13 | 19 | – | – | – |
| CCCC1(CCC)C[C@@H](NC(=O)Nc2cccc3cnc(C)cc23)c2cccc(F)c2O1 [Example 68, N-[(4R)-8-fluoro-2,2-dipropyl-3,4-dihydro-2H-chromen-4-yl]-N′-(3-methylisoquinolin-5-yl)urea] | 6.4 | 13 | 0 | – | – | – |
| CC1(C)C[C@@H](NC(=O)Nc2cccc3cnccc23)c2cc(F)ccc2O1 [Example 5, N-[(4R)-6-fluoro-2,2-dimethyl-3,4-dihydro-2H-chromen-4-yl]-N′-isoquinolin-5-ylurea] | 61 | 55 | 100 | – | – | – |
